Assay [1] has as its target Mcl-1 protein (UniProtKB primary accession number: Q07820) (Homo sapiens, UniProt Q07820). The experiment in a line: Inhibition of Mcl-1 by fluorescence polarisation, Method 1. The format is binding. The following applies: read-out: IC50 (M) Mcl-1 FP. The essentials:
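Fluorescence polarisation competition with an 11-point compound dilution series (final DMSO 5%). Mcl-1 protein at 5 nM and fluorescein-labelled ligand at 1 nM (final) in 10 mM HEPES, 150 mM NaCl, 0.05% Tween 20, pH 7.4.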
A general note: Polarisation of emitted light reports the rotation of a fluorescent probe.

The subject of assay [2] is AMO-1 multiple myeloma cells. As to the kind of experiment: Quantification of the cleaved form of PARP in vivo (MSD ELISA, tumour lysates). Set-up: species or system mice (SCID strain). The note with it: activation factor: cleaved PARP in treated mice / control mice, AMO-1 xenograft in SCID mice, intraveinous or oral routes. The method, then: The ability of the compounds of the invention to induce apoptosis, by measuring cleaved PARP levels, is evaluated in a xenograft model of AMO-1 multiple myeloma cells. 1.10^7 AMO-1 cells are grafted sub-cutaneously into immunosuppressed mice (SCID strain). 12 to 14 days after the graft, the animals are treated by intraveinous or oral routes with the various compounds. After treatment, the tumour masses are recovered and lysed, and the cleaved form of PARP is quantified in the tumour lysates.
The quantification is carried out using the “Meso Scale Discovery (MSD) ELISA platform” test, which specifically assays the cleaved form of PARP. It is expressed in the form of an activation factor corresponding to the ratio between the quantity of cleaved PARP in the treated mice divided by the quantity of cleaved PARP in the control mice.
(An ELISA detects its analyte on a solid surface through an enzyme-linked reagent.)

Assay [3] concerns H929 multiple myeloma tumour line. The experiment in a line: In vitro cytotoxicity, Microculture Tetrazolium Assay. The note with it: H929 cells, 48 hours exposure, read-out: IC50 (μM) MTT H929. Type of assay: cell-based. The method, then: The cytotoxicity studies were carried out on the H929 multiple myeloma tumour line.
The cells are distributed onto microplates and exposed to the test compounds for 48 hours.

Where [4] appears, read: fluorescence polarisation test, Method 2 values are underlined in the patent (underlining not visible here).
The mark [5] stands for this setting: Homo sapiens, NCI-H929, 48 h, MTT.
Setting [6] is: fluorescence polarisation, Method 1, or Method 2.

Like-named read-outs stand apart in the source and are kept apart here.

In general, IC50 refers to the concentration at which inhibition is half-maximal.

Chain of Mcl-1 protein (Q07820 whole entry): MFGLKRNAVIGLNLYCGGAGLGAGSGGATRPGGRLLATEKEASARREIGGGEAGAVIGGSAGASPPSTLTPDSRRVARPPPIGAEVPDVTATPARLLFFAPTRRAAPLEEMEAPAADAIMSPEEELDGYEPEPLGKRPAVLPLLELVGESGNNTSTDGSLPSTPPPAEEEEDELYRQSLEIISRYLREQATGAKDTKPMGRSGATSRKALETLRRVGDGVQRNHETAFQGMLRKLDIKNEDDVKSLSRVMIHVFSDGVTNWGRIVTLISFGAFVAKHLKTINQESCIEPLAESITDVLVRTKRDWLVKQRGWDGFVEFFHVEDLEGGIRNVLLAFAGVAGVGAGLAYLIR

As for `COCCOc1ccccc1CC(Oc1ncnc2sc(-c3ccco3)c(-c3ccc(OCCN4CCN(C)CC4)c(Cl)c3C)c12)C(=O)O` [Example 290, (2R)-2-{[(5Sa)-5-{3-chloro-2-methyl-4-[2-(4-methylpiperazin-1-yl)ethoxy]phenyl}-6-(furan-2-yl)thieno[2,3-d]pyrimidin-4-yl]oxy}-3-[2-(2-methoxyethoxy)phenyl]propanoic acid], the IC50 came to 5.8e-09 M in assay [1] (setting [4]) and 0.097 µM in assay [3] (setting [5]). The same compound registered a PARP fold in assay [2] of 121 fold.

Take `Cc1c(-c2c(-c3ccc(F)cc3)sc3ncnc(OC(Cc4ccccc4OCc4ccnc(-c5ccccc5O)n4)C(=O)O)c23)ccc(OCCN2CCN(C)CC2)c1Cl` [Example 722, (2R)-2-{[(5Sa)-5-{3-chloro-2-methyl-4-[2-(4-methylpiperazin-1-yl)ethoxy]phenyl}-6-(4-fluorophenyl)thieno[2,3-d]pyrimidin-4-yl]oxy}-3-(2-{[2-(2-hydroxyphenyl)pyrimidin-4-yl]methoxy}phenyl)propanoic acid]: the IC50 was 1.4e-09 M in assay [1] (setting [6]) and 0.023 µM in assay [3] (setting [5]). The same compound yielded a PARP fold in assay [2] of 296.6 fold.

Consider `Cc1c(-c2c(-c3ccc(F)cc3)sc3ncnc(OC(Cc4ccccc4OCc4ccnn4C(C)(C)C)C(=O)O)c23)ccc(OCCN(C)C)c1Cl` [Example 750, (2R)-3-{2-[(1-tert-butyl-1H-pyrazol-5-yl)methoxy]phenyl}-2-{[(5Sa)-5-{3-chloro-4-[2-(dimethylamino)ethoxy]-2-methylphenyl}-6-(4-fluorophenyl)thieno[2,3-d]pyrimidin-4-yl]oxy}propanoic acid], for which the results for the IC50 in assay [1] (setting [6]) and in assay [3] (setting [5]) were 1.33e-09 M and 0.035 µM, respectively. In assay [2], the PARP fold worked out at 181.6 fold.

For `COCCNc1nccc(COc2ccccc2CC(Oc2ncnc3sc(-c4ccc(F)cc4)c(-c4ccc(OCCN5CCN(C)CC5)c(Cl)c4C)c23)C(=O)O)n1` [Example 53, (2R)-2-{[(5Sa)-5-{3-chloro-2-methyl-4-[2-(4-methylpiperazin-1-yl)ethoxy]phenyl}-6-(4-fluorophenyl)thieno[2,3-d]pyrimidin-4-yl]oxy}-3-[2-({2-[(2-methoxyethyl)amino]pyrimidin-4-yl}methoxy)phenyl]propanoic acid], the results for the IC50 in assay [1] (setting [4]) and in assay [3] (setting [5]) were 3.4e-09 M and 0.015 µM, respectively. Further, the PARP fold in assay [2] worked out at 178.7 fold.

With `COCCOC(=O)C(Cc1ccccc1OCc1ccnc(-c2ccccc2OC)n1)Oc1ncnc2sc(-c3ccc(F)cc3)c(-c3ccc(OCCN4CCN(C)CC4)c(Cl)c3C)c12` [Example 789, 2-methoxyethyl (2R)-2-{[(5Sa)-5-{3-chloro-2-methyl-4-[2-(4-methylpiperazin-1-yl)ethoxy]phenyl}-6-(4-fluorophenyl)thieno[2,3-d]pyrimidin-4-yl]oxy}-3-(2-{[2-(2-methoxyphenyl)pyrimidin-4-yl]methoxy}phenyl)propanoate], the IC50 in assay [1] (setting [6]) turned out to be 3.82e-07 M; in assay [3] (setting [5]), 0.206 µM. For the same compound, the PARP fold in assay [2] is listed as 135.2 fold.

Consider `Cc1cc(-c2nccc(COc3ccccc3CC(Oc3ncnc4sc(-c5ccc(F)cc5)c(-c5ccc(OCCN6CCN(C)CC6)c(Cl)c5C)c34)C(=O)O)n2)ccn1` [Example 118, (2R)-2-{[(5Sa)-5-{3-chloro-2-methyl-4-[2-(4-methylpiperazin-1-yl)ethoxy]phenyl}-6-(4-fluorophenyl)thieno[2,3-d]pyrimidin-4-yl]oxy}-3-(2-{[2-(2-methylpyridin-4-yl)pyrimidin-4-yl]methoxy}phenyl)propanoic acid], for which the IC50 in assay [1] (setting [4]) was 5.5e-09 M; in assay [3] (setting [5]), 0.006 µM. This compound also displayed a PARP fold in assay [2] of 159.8 fold.

For `COCCOc1ccccc1-c1nccc(COc2ccccc2CC(Oc2ncnc3sc(-c4ccc(F)cc4)c(-c4ccc(OCCN5CCN(C)CC5)c(Cl)c4C)c23)C(=O)O)n1` [Example 724, (2R)-2-{[(5Sa)-5-{3-chloro-2-methyl-4-[2-(4-methylpiperazin-1-yl)ethoxy]phenyl}-6-(4-fluorophenyl)thieno[2,3-d]pyrimidin-4-yl]oxy}-3-[2-({2-[2-(2-methoxyethoxy)phenyl]pyrimidin-4-yl}methoxy)phenyl]propanoic acid], the IC50 in assay [1] (setting [6]) was 9.48e-10 M; in assay [3] (setting [5]), 0.002 µM. In addition, in assay [2], the PARP fold turned out to be 188.9 fold.

With `COc1cc(COc2ccccc2CC(Oc2ncnc3sc(-c4ccc(F)o4)c(-c4ccc(OCCN5CCN(C)CC5)c(Cl)c4C)c23)C(=O)O)ccn1` [Example 168, (2R)-2-{[(5Sa)-5-{3-chloro-2-methyl-4-[2-(4-methylpiperazin-1-yl)ethoxy]phenyl}-6-(5-fluorofuran-2-yl)thieno[2,3-d]pyrimidin-4-yl]oxy}-3-{2-[(2-methoxypyridin-4-yl)methoxy]phenyl}propanoic acid], the IC50 in assay [1] (setting [4]) was found to be 2.8e-09 M; in assay [3] (setting [5]), 0.025 µM. In addition, the PARP fold in assay [2] was 179.2 fold.

With `CC#Cc1sc2ncnc(O[C@H](Cc3ccccc3OCc3ccnc(-c4ccncc4C)n3)C(=O)O)c2c1-c1ccc(OCCN2CCN(C)CC2)c(Cl)c1C` [Example 483, (2R)-2-{[(5Sa)-5-{3-chloro-2-methyl-4-[2-(4-methylpiperazin-1-yl)ethoxy]phenyl}-6-(prop-1-yn-1-yl)thieno[2,3-d]pyrimidin-4-yl]oxy}-3-(2-{[2-(3-methylpyridin-4-yl)pyrimidin-4-yl]methoxy}phenyl)propanoic acid], the figures for the IC50 in assay [1] (setting [6]) and in assay [3] (MTT) were 5.2e-09 M and 0.003 µM, respectively. The PARP fold in assay [2] is 411 fold.

Regarding `CC#Cc1sc2ncnc(OC(Cc3ccccc3OCc3ccnc(OCC(F)(F)F)n3)C(=O)O)c2c1-c1ccc(OCCN2CCN(C)CC2)c(Cl)c1C` [Example 487, (2R)-2-{[(5Sa)-5-{3-chloro-2-methyl-4-[2-(4-methylpiperazin-1-yl)ethoxy]phenyl}-6-(prop-1-yn-1-yl)thieno[2,3-d]pyrimidin-4-yl]oxy}-3-(2-{[2-(2,2,2-trifluoroethoxy)pyrimidin-4-yl]methoxy}phenyl)propanoic acid], the IC50 turned out to be 6.5e-09 M in assay [1] (setting [6]) and 0.004 µM in assay [3] (setting [5]). In assay [2], this compound came in with a PARP fold of 141.4 fold.

Turning to `Cc1ccncc1-c1nccc(COc2ccccc2CC(Oc2ncnc3sc(-c4ccc(F)cc4)c(-c4ccc(OCCN(C)C)c(Cl)c4C)c23)C(=O)O)n1` [Example 138, (2R)-2-{[(5Sa)-5-{3-chloro-4-[2-(dimethylamino)ethoxy]-2-methylphenyl}-6-(4-fluorophenyl)thieno[2,3-d]pyrimidin-4-yl]oxy}-3-(2-{[2-(4-methylpyridin-3-yl)pyrimidin-4-yl]methoxy}phenyl)propanoic acid], the IC50 in assay [1] (setting [4]) is 8.9e-09 M; in assay [3] (setting [5]) it was 0.013 µM. This compound gave a PARP fold in assay [2] of 333.9 fold.

On to `COc1ccc(-c2nccc(COc3ccccc3CC(Oc3ncnc4sc(-c5ccc(F)cc5)c(-c5ccc(OCCN6CCN(C)CC6)c(Cl)c5C)c34)C(=O)O)n2)c(C(F)(F)F)c1` [Example 729, (2R)-2-{[(5Sa)-5-{3-chloro-2-methyl-4-[2-(4-methylpiperazin-1-yl)ethoxy]phenyl}-6-(4-fluorophenyl)thieno[2,3-d]pyrimidin-4-yl]oxy}-3-[2-({2-[4-methoxy-2-(trifluoromethyl)phenyl]pyrimidin-4-yl}methoxy)phenyl]propanoic acid], for which the figures for the IC50 in assay [1] (setting [6]) and in assay [3] (setting [5]) were 1.24e-09 M and 0.009 µM, respectively. In assay [2], this compound gave a PARP fold of 221 fold.

With `COc1ccccc1-c1nccc(COc2ccccc2CC(Oc2ncnc3sc(-c4ccc(F)cc4)c(-c4ccc(OCCN5CCN(C)CC5)c(Cl)c4C)c23)C(=O)OCC(=O)N(C)C)n1` [Example 812, 2-(dimethylamino)-2-oxoethyl (2R)-2-{[(5Sa)-5-{3-chloro-2-methyl-4-[2-(4-methylpiperazin-1-yl)ethoxy]phenyl}-6-(4-fluorophenyl)thieno[2,3-d]pyrimidin-4-yl]oxy}-3-(2-{[2-(2-methoxyphenyl)pyrimidin-4-yl]methoxy}phenyl)propanoate], the IC50 in assay [1] (fluorescence polarisation test, Method 1, or Method 2 where the value is underlined (underlining not visible)) worked out at 6.51e-07 M; in assay [3] (Homo sapiens, NCI-H929, 48 h, cell viability) it was 0.103 µM. Also, the PARP fold in assay [2] is 136 fold.

As to `COc1ccccc1-c1nccc(COc2ccccc2CC(Oc2ncnc3sc(-c4ccc(F)cc4)c(-c4ccc(OCCN5CCN(C)CC5)c(Cl)c4Br)c23)C(=O)O)n1` [Example 742, (2R)-2-{[(5Sa)-5-{2-bromo-3-chloro-4-[2-(4-methylpiperazin-1-yl)ethoxy]phenyl}-6-(4-fluorophenyl)thieno[2,3-d]pyrimidin-4-yl]oxy}-3-(2-{[2-(2-methoxyphenyl)pyrimidin-4-yl]methoxy}phenyl)propanoic acid], the values for the IC50 in assay [1] (setting [6]) and in assay [3] (setting [5]) were 9.48e-10 M and 0.002 µM, respectively. The same compound returned a PARP fold in assay [2] of 267.2 fold.

These data come from US9670227B2, “Thienopyrimidine derivatives, a process for their preparation and pharmaceutical compositions containing them” (LES LABORATOIRES SERVIER, priority 2013, dated 2017).
